Laboratory results reported in ChEMBL document CHEMBL1145042, “Understanding the structure-activity relationship of the human ether-a-go-go-related gene cardiac K+ channel. A model for bad behavior” (J Med Chem, 2003).

Tested on: Bacteria
Assay: Bacterial minimum inhibitory concentration
Type: functional

For `Cc1c(F)c(N2CCNC(C)C2)cc2c1c(=O)c(C(=O)O)cn2C1CC1` (stereo unspecified) [GREPAFLOXACIN], the MIC was < 2.4 µM.
